Test results taken from patent EP4140986A1, “PYRAZINE COMPOUNDS FOR THE CONTROL OF INVERTEBRATE PESTS” (BASF SE, priority 2021, dated 2023).

What was measured:
Format in all cases: in vivo
[1] = tested on: yellow fever mosquito (Aedes aegypti); experiment: whole plant or invertebrate; details: 48 h, larval mortality, 2 days, read-out: mortality in comparison with untreated controls
Procedure: For evaluating control of yellow fever mosquito (Aedes aegypti) the test unit consisted of 96-well-microtiter plates containing 200µl of tap water per well and 5-15 freshly hatched A. aegypti larvae.
The active compounds were formulated using a solution containing 75% (v/v) water and 25% (v/v) DMSO. Different concentrations of formulated compounds or mixtures were sprayed onto the insect diet at 2.5µl, using a custom-built micro atomizer, at two replications.
After application, microtiter plates were incubated at 28 ± 1°C, 80 ± 5 % RH for 2 days. Larval mortality was then visually assessed.

[2] = tested on: green peach aphid (Myzus persicae); experiment: Green Peach Aphid systemic test, artificial diet in 96-well microtiter plates; details: 72 h, adult aphids on treated diet, 3 days, read-out: mortality in comparison with untreated controls
Text: For evaluating control of green peach aphid (Myzus persicae) through systemic means, the test unit consisted of 96-well-microtiter plates containing liquid artificial diet under an artificial mem brane.
The compounds were formulated using a solution containing 75% v/v water and 25% v/v DMSO. Different concentrations of formulated compounds were pipetted into the aphid diet, using a custom built pipetter, at two replications.
After application, 5 - 8 adult aphids were placed on the artificial membrane inside the microtiter plate wells. The aphids were then allowed to suck on the treated aphid diet and incubated at about 23 ± 1°C and about 50 ± 5 % relative humidity for 3 days. Aphid mortality and fecundity was then visually assessed.

[3] = tested on: Southern armyworm (Spodoptera eridania), 2nd instar larvae; experiment: Southern armyworm foliar spray test on Lima bean plants; details: 2nd instar larvae on sprayed Lima bean plants, 4 days after treatment
Procedure: The active compounds were formulated by a Tecan liquid handler in 100% cyclohexanone as a 10,000-ppm solution supplied in tubes. The 10,000-ppm solution was serially diluted in 100% cyclohexanone to make interim solutions. These served as stock solutions for which final dilutions were made by the Tecan in 50% acetone:50% water (v/v) into 10 or 20ml glass vials. A non-ionic surfactant (Kinetic®) was included in the solution at a volume of 0.01% (v/v). The vials were then inserted into an automated electrostatic sprayer equipped with an atomizing nozzle for application to plants/insects. Lima bean plants (variety Sieva) were grown 2 plants to a pot and selected for treatment at the 1st true leaf stage. Test solutions were sprayed onto the foliage by an auto-mated electrostatic plant sprayer equipped with an atomizing spray nozzle. The plants were dried in the sprayer fume hood and then removed from the sprayer. Each pot was placed into perforated plastic bags with a zip closure. Ten to 11 armyworm larvae were placed into the bag and the bags zipped closed. Test plants were maintained in a growth room at about 25°C and about 20-40% relative humidity for 4 days, avoiding direct exposure to fluorescent light (14:10 light:dark photoperiod) to prevent trapping of heat inside the bags. Mortality and reduced feeding were assessed 4 days after treatment, compared to untreated control plants.

[4] = tested on: tobacco budworm (Heliothis virescens); experiment: Tobacco budworm test, insect diet with eggs in 96-well microtiter plates; details: 120 h, egg and larval mortality, 5 days, read-out: mortality in comparison with untreated controls
Procedure: For evaluating control of tobacco budworm (Heliothis virescens), the test unit consisted of 96-well-microtiter plates containing an insect diet and 15-25 H. virescens eggs.
The compounds were formulated using a solution containing 75% v/v water and 25% v/v DMSO. Different concentrations of formulated compounds were sprayed onto the insect diet at 10 µl using a custom-built micro atomizer, at two replications.
After application, microtiter plates were incubated at about 28 ± 1°C and about 80 ± 5 % relative humidity for 5 days. Egg and larval mortality was then visually assessed.

[5] = tested on: boll weevil (Anthonomus grandis); experiment: Boll weevil test, insect diet with eggs in 96-well microtiter plates; details: 120 h, egg and larval mortality, 5 days, read-out: mortality in comparison with untreated controls
Procedure: For evaluating control of boll weevil (Anthonomus grandis), the test unit consisted of 96-well-microtiter plates containing an insect diet and 5-10 A. grandis eggs.
The compounds were formulated using a solution containing 75% v/v water and 25% v/v DMSO. Different concentrations of formulated compounds were sprayed onto the insect diet at 5 µl, using a custom-built micro atomizer, at two replications.
After application, microtiter plates were incubated at about 25 ± 1°C and about 75 ± 5 % relative humidity for 5 days. Egg and larval mortality was then visually assessed.

Structure (SMILES) | mortality at 2500 ppm [1] | mortality at 2500 ppm [2] | mortality at 300 ppm ([3]; Spodoptera eridania, foliar, 96 h, read-out: mortality in comparison with untreated controls) | mortality at 2500 ppm [4] | mortality at 2500 ppm [5] | mortality in comparison with untreated controls ([3]; 300 ppm)
CON=C(C)c1nccnc1C(C)NC(=O)c1cc(C(F)(F)F)cc(C(F)(F)F)c1 (stereo not drawn) [Compound I-1, N-[1-[3-[N-methoxy-C-methyl-carbonimidoyl]pyrazin-2-yl]ethyl]-3,5-bis(trifluoromethyl)benzamide] | ≥ 75% | ≥ 75% | ≥ 75% | ≥ 75% | ≥ 75% | 
CON=C(N)c1nccnc1C(C)N(CC1CC1)C(=O)c1cc(C(F)(F)F)cc(C(F)(F)F)c1 (stereo not drawn) [Compound I-4] |  |  |  |  |  | at least 75%
